For data set [1], the system named is HT-29. Briefly: CellTiter-Glo cell viability, 48 h (Example 1). It is filed as cell-based. The conditions noted are these: Homo sapiens. The text has this: (§1) Test Article Preparation for INBRX-109.
(§2) Day 2—Test and Control Article Addition.
(§3) Day 4—Viability Measurements. […] Data was graphed in GraphPad Prism 7.

The subject of data set [2] is SNU-C2B. In words: CellTiter-Glo cell viability, 48 h (Example 1). Format: cell-based. As to conditions: Homo sapiens.
Source text: as §1, §2, §3

Data set [3] concerns LOVO. Briefly: CellTiter-Glo cell viability, 48 h (Example 1). Format: cell-based. As to conditions: Homo sapiens.
Source text: as §1, §2, §3

The test system of data set [4] is LS411N. In words: CellTiter-Glo cell viability, 48 h (Example 1). Format: cell-based. As to conditions: Homo sapiens, LS-411N.
Source text: as §1, §2, §3

Data set [5] deals with SW620. Briefly: CellTiter-Glo cell viability, 48 h (Examples 1, 2). Format: cell-based. The conditions noted are these: Homo sapiens, SW-620.
Source text: as §1, §2, §3

Data set [6] relates to NCI-H2452. In words: Cytotoxicity on lung cancer cell lines, assay similar to Example 1 (Example 4). The conditions noted are these: Homo sapiens.
Experimental: (§6) Day 1-Cell Seeding. Monolayer cultures of each cell line were harvested for compound screening as detailed below. Culture medium was aspirated, and the cells were washed once with PBS. Accutase was added and flasks were incubated at 37° C. until cells became detached. An equal volume of complete medium was added to quench the Accutase, and the cells were then pipetted up and down several times to generate a homogenous single cell suspension. The density and viability of cells was determined by Trypan Blue using a TC20 Automated Cell Counter. Experimental cells were resuspended to a concentration of 0.17×10^6/mL in EMEM/10% FBS/Anti-Anti media (complete EMEM) and seeded in the inner wells of 384-well luminescence plates at 15 μL/well (2,500/well final). Each cell line was plated in duplicate on separate plates. […]
(§7) Day 4—Viability Measurements. […] Any visible bubbles were removed with 100% ethanol vapor, then luminescence (RLU) was read on the Spectra Max M5e plate reader, using the 384-well opaque plate setting and SoftMaxPro v5.4 software with an integration time of 50 milliseconds. To determine the effect of test articles on cell viability, raw RLU values were exported to Excel and percent survival was calculated as a percentage of vehicle control (0.2% DMSO in EMEM), where the vehicle control is set at 100%. […]
The subject of data set [7] is AsPC-1. In words: Cytotoxicity on pancreatic cancer cell lines, assay similar to Example 1 (Example 4). As to conditions: Homo sapiens, ASPC1.
Experimental: as §6
(§8) Day 4—Viability Measurements. […] Any visible bubbles were removed with 100% ethanol vapor, then luminescence (RLU) was read on the Spectra Max M5e plate reader, using the 384-well opaque plate setting and SoftMaxPro v5.4 software with an integration time of 50 milliseconds. To determine the effect of test articles on cell viability, raw RLU values were exported to Excel and percent survival was calculated as a percentage of vehicle control (0.2% DMSO in EMEM), where the vehicle control is set at 100%.
The subject of data set [8] is A549. In words: Cytotoxicity on lung cancer cell lines, assay similar to Example 1 (Example 4). The conditions noted are these: Homo sapiens.
Experimental: as §6, §7
Data set [9] deals with NCI-H460. Described as above. The conditions noted are these: Homo sapiens.
Experimental: as §6, §7
Data set [10] concerns SW1990. Briefly: Cytotoxicity on pancreatic cancer cell lines, assay similar to Example 1 (Example 4). The conditions noted are these: Homo sapiens.
Experimental: as §6, §7
Data set [11] relates to NCI-N87. Briefly: Cytotoxicity on gastric cancer cell lines, assay similar to Example 1 (Example 4). The conditions noted are these: Homo sapiens.
Experimental: as §6, §8
The test system of data set [12] is NCI-H23. Briefly: Cytotoxicity on lung cancer cell lines, assay similar to Example 1 (Example 4). The conditions noted are these: Homo sapiens.
Experimental: as §6, §7
The test system of data set [13] is Detroit 562. In words: CellTiter-Glo cell viability, T48 (Example 3). Format: cell-based. The text has this:
(§4) Day 2—Compound Treatment.
(§5) Day 4—Viability Measurements.

The test system of data set [14] is SW579. Briefly: CellTiter-Glo cell viability, T48 (Example 3). It is filed as cell-based.
Source text: as §4, §5

The subject of data set [15] is FADU. In words: CellTiter-Glo cell viability, T48 (Example 3). Format: cell-based.
Source text: as §4, §5

Data set [16] has as its system KYSE-270. Briefly: CellTiter-Glo cell viability, T48 (Example 3). It is filed as cell-based.
Source text: as §4, §5

Data set [17] deals with COLO-680N. Briefly: CellTiter-Glo cell viability, T48 (Example 3). Format: cell-based.
Source text: as §4, §5

Data set [18] relates to SCC-15. In words: CellTiter-Glo cell viability, T48 (Example 3). It is filed as cell-based.
Source text: as §4, §5

In data set [19] the test system is KYSE-70. Briefly: CellTiter-Glo cell viability, T48 (Example 3). Format: cell-based.
Source text: as §4, §5

The subject of data set [20] is CAL-27. In words: CellTiter-Glo cell viability, T48 (Example 3). It is filed as cell-based.
Source text: as §4, §5

For data set [21], the system named is TE-1. In words: CellTiter-Glo cell viability, T48 (Example 3). It is filed as cell-based.
Source text: as §4, §5

The subject of data set [22] is SCC-9. Briefly: CellTiter-Glo cell viability, T48 (Example 3). It is filed as cell-based.
Source text: as §4, §5

Data set [23] concerns SCC-25. In words: CellTiter-Glo cell viability, T48 (Example 3). Format: cell-based.
Source text: as §4, §5

For data set [24], the system named is A253. Briefly: CellTiter-Glo cell viability, T48 (Example 3). Format: cell-based.
Source text: as §4, §5

Data set [25] concerns OSC-19. In words: CellTiter-Glo cell viability, T48 (Example 3). Format: cell-based.
Source text: as §4, §5

Data set [26] relates to SCC-4. Briefly: CellTiter-Glo cell viability, T48 (Example 3). It is filed as cell-based.
Source text: as §4, §5

For data set [27], the system named is KYSE-410. In words: CellTiter-Glo cell viability, T48 (Example 3). It is filed as cell-based.
Source text: as §4, §5

The subject of data set [28] is T.Tn. Briefly: CellTiter-Glo cell viability, T48 (Example 3). It is filed as cell-based.
Source text: as §4, §5

For data set [29], the system named is KYSE-150. In words: CellTiter-Glo cell viability, T48 (Example 3). Format: cell-based.
Source text: as §4, §5

In data set [30] the test system is RPMI-2650. Briefly: CellTiter-Glo cell viability, T48 (Example 3). It is filed as cell-based.
Source text: as §4, §5

Data set [31] relates to MIA-PaCa-2. Briefly: Cytotoxicity on pancreatic cancer cell lines, assay similar to Example 1 (Example 4). The conditions noted are these: Homo sapiens.
Experimental: as §6, §7
Data set [32] relates to Panc-1. The description is as above. The conditions noted are these: Homo sapiens.
Experimental: as §6, §8
The subject of data set [33] is SNU-5. Briefly: Cytotoxicity on gastric cancer cell lines, assay similar to Example 1 (Example 4). The conditions noted are these: Homo sapiens.
Experimental: as §6, §8
For data set [34], the system named is SNU-1. The description is as above. As to conditions: Homo sapiens, SNU1.
Experimental: as §6, §8
For data set [35], the system named is HCC2935. Briefly: Cytotoxicity on lung cancer cell lines, assay similar to Example 1 (Example 4). As to conditions: Homo sapiens.
Experimental: as §6, §7
Data set [36] relates to LS174T. In words: CellTiter-Glo cell viability, 48 h (Examples 1, 2). Format: cell-based. The conditions noted are these: Homo sapiens, LCL-161 5 uM alone.
Source text: as §1, §2, §3

Where [37] appears, read: Homo sapiens, Debio-1143 4.5 μM alone.
Where [38] appears, read: LCL-161 5 uM alone, read-out: % cytotoxicity.

For `C[C@@H]1CN(CC(=O)N2CC(C)(C)c3nc(CO)c(Cc4ccc(F)cc4)cc32)[C@@H](CN2CCOC[C@H]2C)CN1` [ASTX660, tolinapant], the cytotoxicity at 0.9 µM in [1] (ASTX660 900 nM alone) came to 0.3%; in [2] (ASTX660 900 nM alone) it was 31.1%; in data set [3] (ASTX660 900 nM alone) it was 6.5%; in [4] (LS411N, ASTX660 900 nM alone) it was 5.9%; in [5] (SW620, ASTX660 900 nM alone) it was 2.6%.

Regarding `CN[C@@H](C)C(=O)N[C@H](C(=O)N1CCC[C@H]1C(=O)N[C@H]1c2ccccc2C[C@H]1OCC#CC#CCO[C@@H]1Cc2ccccc2[C@@H]1NC(=O)[C@@H]1CCCN1C(=O)[C@@H](NC(=O)[C@H](C)NC)C1CCCCC1)C1CCCCC1` [AZD5582], the cytotoxicity at 0.45 µM in data set [1] (AZD5582 450 nM alone) amounted to 23.4%; in data set [2] (AZD5582 450 nM alone), 75.3%; in [3] (AZD5582 450 nM alone), 28.2%; in data set [4] (LS411N, AZD5582 450 nM alone), 12.7%; in data set [5] (SW620, AZD5582 450 nM alone), 4.1%.

For the molecule `CN[C@@H](C)C(=O)N[C@H]1CN(C(=O)CC(C)C)CC[C@H]2CC[C@@H](C(=O)NC(c3ccccc3)c3ccccc3)N2C1=O` [Debio-1143, xevinapant], the cytotoxicity at 2 µM in data set [6] was 2.82%; in data set [7], 2.71%; in [8], 9.61%; in data set [9], 3.43%; in data set [10] it was 2.23%; in data set [11], 7.01%. The cytotoxicity at 2 µM in [12] worked out at 10.8%; in data set [31], 7.37%; in [32] it was 13.6%; in [33], 31.5%; in [34], 6.83%; in data set [35], 4.95%. The cytotoxicity at 4.5 µM was 44.8% in data set [2]; 0.4% in data set [4]; 5.5% in data set [5]; 9% in data set [13] (setting [37]); 7.7% in data set [14] (Debio-1143 4.5 μM alone); -3.7% in [15] (setting [37]). Also, the cytotoxicity at 4.5 µM is 8.2% in data set [16] (setting [37]); 3.4% in [17] (setting [37]); 0.9% in data set [18] (setting [37]); -6.7% in [19] (setting [37]); 7.2% in [20] (setting [37]); -6% in data set [21] (setting [37]). For the same molecule, the cytotoxicity at 4.5 µM in [22] (setting [37]) was 2.3%; in data set [23] (setting [37]) it was 0.6%; in data set [24] (setting [37]), 3.2%; in data set [25] (OSC19, Debio-1143 4.5 μM alone), -7.1%; in data set [26] (setting [37]), 0.7%; in data set [27] (setting [37]), -3.3%. Also, the cytotoxicity at 4.5 µM was 4.4% in data set [28] (Debio-1143 4.5 μM alone), -13.7% in [29] (setting [37]) and 5.6% in data set [30] (setting [37]).

On to `CN[C@@H](C)C(=O)N[C@H](C(=O)N1CCC[C@H]1c1nc(C(=O)c2ccc(F)cc2)cs1)C1CCCCC1` [LCL-161], for which the cytotoxicity at 5 µM in data set [1] (setting [38]) came to 6.2%; in [2] (setting [38]), 72.9%; in data set [4] (LS411N, LCL-161 5 uM alone, read-out: % cytotoxicity), 10.5%; in [5] (SW620, LCL-161 5 uM alone, read-out: % cytotoxicity) it was 4.7%; in data set [36] it was 9%.

B1: INBRX-109: DR5-binding polypeptide consisting of SEQ ID NO: 7, or SEQ ID NO: 7 lacking the terminal lysine; tetravalent DR5 agonist (protein)
chain: EVQLLESGGGEVQPGGSLRLSCAASGLTFPNYGMGWFRQAPGKEREFVSAIYWSGGTVYYAESVKGRFTISRDNAKNTLYLQMSSLRAEDTAVYYCAVTIRGAATQTWKYDYWGQGTLVTVKPGGSGGSEVQLLESGGGEVQPGGSLRLSCAASGLTFPNYGMGWFRQAPGKEREFVSAIYWSGGTVYYAESVKGRFTISRDNAKNTLYLQMSSLRAEDTAVYYCAVTIRGAATQTWKYDYWGQGTLVTVKPGGGGDKTHTCPPCPAPGGPSVFLFPPKPKDTLMISRTPEVTCVVVDVSHEDPEVKFNWYVDGVEVHNAKTKPREEQYNSTYRVVSVLTVLHQDWLNGKEYKCKVSNKALPAPIEKTISKAKGQPREPQVYTLPPSRDELTKNQVSLTCLVKGFYPSDIAVEWESNGQPENNYKTTPPVLDSDGSFFLYSKLTVDKSRWQQGNVFSCSVMHEALHNHYTQKSLSLSPGK
modifications: Synthetic: INBRX-109
notes: tetravalent DR5 agonist
On to B1, for which the “% cytotoxicity” value in [13] (INBRX-109 1 nM alone) amounted to 42.9%; in data set [14] (INBRX-109 1 nM alone), 101.7%; in data set [15] (INBRX-109 1 nM alone), 6.1%; in [16] (INBRX-109 1 nM alone) it was 7.3%; in [17] (INBRX-109 1 nM alone) it was 9.6%; in data set [18] (INBRX-109 1 nM alone) it was 7.3%. The “% cytotoxicity” value was 22.3% in data set [19] (INBRX-109 1 nM alone); 13.7% in data set [20] (INBRX-109 1 nM alone); 38.4% in [21] (INBRX-109 1 nM alone); 19.4% in [22] (INBRX-109 1 nM alone); 7.9% in data set [23] (INBRX-109 1 nM alone); 50.9% in [24] (INBRX-109 1 nM alone). Moreover, the “% cytotoxicity” value is recorded as 100.9% in [25] (INBRX-109 1 nM alone); 8.5% in [26] (INBRX-109 1 nM alone); 2.6% in data set [27] (INBRX-109 1 nM alone); 42.9% in data set [28] (INBRX-109 1 nM alone); −0.3% in [29] (INBRX-109 1 nM alone); 2.9% in data set [30] (INBRX-109 1 nM alone).

The values are drawn from US20250302948A1, “DR5 Agonist and IAP Antagonist Combination Therapy” (Inhibrx Biosciences, Inc., priority 2022, published 2025).
